These results are taken from ChEMBL document CHEMBL5696442, “Discovery of type II inhibitors of TGFβ-activated kinase 1 (TAK1) and mitogen-activated protein kinase kinase kinase kinase 2 (MAP4K2)” (J Med Chem, 2015).

The source made the active and inactive calls. The rule behind the calls is not given here.

The target in test [1] is Calcium/calmodulin-dependent protein kinase type II subunit gamma (Homo sapiens) (UniProt Q13555). As to the kind of experiment: Inhibition of CaMK2g Lys1 labeling site harbouring KTSTQEYAAKIINTK in human Huh-7 cell lysate at 1 uM by KiNativ Profiling analysis relative to control. Type of test: subcellular.
Test [2] shares this target. As to the kind of experiment: Inhibition of CaMK2g Lys1 labeling site harbouring KTSTQEYAAKIINTK in human Huh-7 cells at 1 uM by KiNativ Profiling analysis relative to control. Type of test: cell-based.
Test [3] deals with Serine/threonine-protein kinase 35 (Homo sapiens) (UniProt Q8TDR2). Description: Inhibition of STK35 (unknown origin) at 1 uM by Ambit Kinomescan binding assay relative to control.
Test [4] has as its target Phosphatidylinositol 4,5-bisphosphate 3-kinase catalytic subunit alpha isoform (Homo sapiens) (UniProt P42336). Description: Inhibition of PIK3CA ATP labeling site in human A-375 cells at 0.05 uM by KiNativ Profiling analysis relative to control. In kind it is cell-based.
The target of test [5] is T1, Inhibitor of nuclear factor kappa-B kinase subunit epsilon (Homo sapiens) (UniProt Q14164).
T1 sequence (whole entry): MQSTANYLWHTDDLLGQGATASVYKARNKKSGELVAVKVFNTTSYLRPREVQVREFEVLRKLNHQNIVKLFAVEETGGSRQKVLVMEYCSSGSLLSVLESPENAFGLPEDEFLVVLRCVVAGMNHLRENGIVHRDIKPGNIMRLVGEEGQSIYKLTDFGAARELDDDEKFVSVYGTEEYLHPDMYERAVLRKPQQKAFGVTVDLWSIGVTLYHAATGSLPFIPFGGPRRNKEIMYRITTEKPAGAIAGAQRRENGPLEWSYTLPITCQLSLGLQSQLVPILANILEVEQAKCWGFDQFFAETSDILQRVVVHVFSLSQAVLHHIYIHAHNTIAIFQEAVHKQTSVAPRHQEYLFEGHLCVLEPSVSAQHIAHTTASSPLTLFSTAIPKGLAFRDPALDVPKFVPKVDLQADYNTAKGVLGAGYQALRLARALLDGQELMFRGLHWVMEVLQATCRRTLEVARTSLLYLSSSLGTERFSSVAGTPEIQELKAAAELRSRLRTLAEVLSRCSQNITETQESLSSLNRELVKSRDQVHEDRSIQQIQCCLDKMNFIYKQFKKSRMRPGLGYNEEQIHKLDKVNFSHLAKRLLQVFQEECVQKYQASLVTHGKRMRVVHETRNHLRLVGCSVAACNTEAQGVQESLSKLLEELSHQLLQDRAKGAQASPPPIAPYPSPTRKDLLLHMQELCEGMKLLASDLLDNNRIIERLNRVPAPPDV
As to the kind of experiment: Inhibition of IKK-epsilon (unknown origin) at 1 uM by Ambit Kinomescan binding assay relative to control; values are per cent of control.

Test [6] concerns the target T2, Aurora kinase A (Homo sapiens) (UniProt O14965).
T2 sequence (whole entry): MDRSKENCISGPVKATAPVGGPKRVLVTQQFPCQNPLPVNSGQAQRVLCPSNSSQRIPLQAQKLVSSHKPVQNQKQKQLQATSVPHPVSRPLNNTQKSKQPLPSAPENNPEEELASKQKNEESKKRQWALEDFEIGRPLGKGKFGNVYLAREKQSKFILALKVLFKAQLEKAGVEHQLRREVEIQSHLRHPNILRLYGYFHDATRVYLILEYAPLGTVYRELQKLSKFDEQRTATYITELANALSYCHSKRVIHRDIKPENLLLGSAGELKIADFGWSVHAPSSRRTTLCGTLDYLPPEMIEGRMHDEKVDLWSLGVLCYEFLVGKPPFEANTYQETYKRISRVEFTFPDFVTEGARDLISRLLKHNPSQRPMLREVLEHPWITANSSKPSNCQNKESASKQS
As to the kind of experiment: Inhibition of AurA Lys2 labeling site in human A-375 cells at 0.05 uM by KiNativ Profiling analysis relative to control. In kind it is cell-based.

Test [7] has as its system eIF-2-alpha kinase GCN2 (Homo sapiens), Q9P2K8 [S808G]. As to the kind of experiment: Inhibition of GCN2 kinase domain 2 S808G mutant (unknown origin) at 1 uM by Ambit Kinomescan binding assay relative to control.
The target in test [8] is Serine/threonine-protein kinase PAK 4 (Homo sapiens) (UniProt O96013). As to the kind of experiment: Inhibition of PAK4 (unknown origin) at 1 uM by Ambit Kinomescan binding assay relative to control; values are per cent of control.
Test [9] deals with Tyrosine-protein kinase CSK (Homo sapiens, UniProt P41240). As to the kind of experiment: Inhibition of CSK ACT labeling site harbouring VSDFGLTKEASSTQDTGKLPVKWTAPEALR in human Huh-7 cells at 10 uM by KiNativ Profiling analysis relative to control. In kind it is cell-based.
Test [10] deals with Serine/threonine-protein kinase N2 (Homo sapiens) (UniProt Q16513). As to the kind of experiment: Inhibition of PKN2 Lys2 labeling site in human A-375 cells at 0.05 uM by KiNativ Profiling analysis relative to control. Type of test: cell-based.
The target in test [11] is Interferon-induced, double-stranded RNA-activated protein kinase (Homo sapiens) (UniProt P19525). As to the kind of experiment: Inhibition of PKR ACT labeling site in human Huh-7 cells at 10 uM by KiNativ Profiling analysis relative to control. Type of test: cell-based.
For test [12], the target named is T3, Mitogen-activated protein kinase kinase kinase 2 (Homo sapiens) (UniProt Q9Y2U5).
T3 sequence (whole entry): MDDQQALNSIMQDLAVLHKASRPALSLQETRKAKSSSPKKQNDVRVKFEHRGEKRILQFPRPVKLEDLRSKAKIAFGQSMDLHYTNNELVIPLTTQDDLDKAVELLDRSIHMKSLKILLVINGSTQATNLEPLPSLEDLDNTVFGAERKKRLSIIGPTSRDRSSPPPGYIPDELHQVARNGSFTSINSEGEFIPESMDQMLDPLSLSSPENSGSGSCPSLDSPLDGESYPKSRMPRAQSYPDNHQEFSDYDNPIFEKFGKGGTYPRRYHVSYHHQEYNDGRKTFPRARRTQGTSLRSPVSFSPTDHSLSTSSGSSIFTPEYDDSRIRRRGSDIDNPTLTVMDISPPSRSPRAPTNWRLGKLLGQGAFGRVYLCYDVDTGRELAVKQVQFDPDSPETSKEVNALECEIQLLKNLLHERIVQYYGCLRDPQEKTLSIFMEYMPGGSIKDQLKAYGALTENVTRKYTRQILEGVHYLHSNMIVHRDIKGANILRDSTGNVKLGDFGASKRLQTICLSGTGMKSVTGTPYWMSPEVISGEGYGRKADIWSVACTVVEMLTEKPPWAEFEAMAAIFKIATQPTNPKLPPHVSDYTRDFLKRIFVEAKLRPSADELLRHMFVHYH
As to the kind of experiment: Inhibition of MAP3K2 Lys2 labeling site in human A-375 cells at 0.05 uM by KiNativ Profiling analysis relative to control. In kind it is cell-based.

Test [13] concerns the target Ribosomal protein S6 kinase alpha-6 (Homo sapiens) (UniProt Q9UK32). Description: Inhibition of C-terminal RPS6KA6 kinase domain 2 (unknown origin) at 10 uM by Ambit Kinomescan binding assay.
The target of test [14] is Cyclin-dependent kinase 8/19 (Homo sapiens) (UniProt P49336+Q9BWU1). Description: Inhibition of CDK8/11 K2 labeling site in human Huh-7 cells at 1 uM by KiNativ Profiling analysis relative to control. Type of test: cell-based.
Chain of Cyclin-dependent kinase 8/19 (Homo sapiens) (P49336 whole entry, looked up): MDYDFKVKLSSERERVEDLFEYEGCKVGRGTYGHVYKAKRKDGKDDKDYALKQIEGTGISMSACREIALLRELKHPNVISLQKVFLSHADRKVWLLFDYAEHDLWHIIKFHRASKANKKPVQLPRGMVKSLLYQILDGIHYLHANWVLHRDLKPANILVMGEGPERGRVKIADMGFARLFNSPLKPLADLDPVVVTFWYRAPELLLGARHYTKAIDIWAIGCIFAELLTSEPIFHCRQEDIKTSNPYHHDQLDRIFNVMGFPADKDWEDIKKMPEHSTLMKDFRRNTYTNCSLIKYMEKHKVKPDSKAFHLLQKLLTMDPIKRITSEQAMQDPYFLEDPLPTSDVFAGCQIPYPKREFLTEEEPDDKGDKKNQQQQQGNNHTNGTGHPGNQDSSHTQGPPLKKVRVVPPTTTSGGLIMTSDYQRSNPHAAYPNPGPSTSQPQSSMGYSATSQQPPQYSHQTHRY
Chain of Cyclin-dependent kinase 8/19 (Homo sapiens) (Q9BWU1 whole entry, looked up): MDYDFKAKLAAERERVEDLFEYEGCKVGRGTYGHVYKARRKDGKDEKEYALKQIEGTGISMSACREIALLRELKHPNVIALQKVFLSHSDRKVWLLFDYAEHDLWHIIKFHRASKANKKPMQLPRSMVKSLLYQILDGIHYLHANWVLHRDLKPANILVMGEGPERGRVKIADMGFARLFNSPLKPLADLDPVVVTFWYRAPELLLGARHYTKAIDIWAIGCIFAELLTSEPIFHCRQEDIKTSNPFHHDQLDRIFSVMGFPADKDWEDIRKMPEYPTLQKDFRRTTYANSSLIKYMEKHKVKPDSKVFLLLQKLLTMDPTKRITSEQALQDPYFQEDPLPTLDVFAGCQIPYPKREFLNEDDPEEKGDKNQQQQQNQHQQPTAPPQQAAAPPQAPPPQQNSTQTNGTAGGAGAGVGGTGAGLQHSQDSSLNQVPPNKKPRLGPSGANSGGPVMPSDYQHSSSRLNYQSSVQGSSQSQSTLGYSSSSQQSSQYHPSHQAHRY

Chain of Calcium/calmodulin-dependent protein kinase type II subunit gamma (Homo sapiens) (Q13555 whole entry): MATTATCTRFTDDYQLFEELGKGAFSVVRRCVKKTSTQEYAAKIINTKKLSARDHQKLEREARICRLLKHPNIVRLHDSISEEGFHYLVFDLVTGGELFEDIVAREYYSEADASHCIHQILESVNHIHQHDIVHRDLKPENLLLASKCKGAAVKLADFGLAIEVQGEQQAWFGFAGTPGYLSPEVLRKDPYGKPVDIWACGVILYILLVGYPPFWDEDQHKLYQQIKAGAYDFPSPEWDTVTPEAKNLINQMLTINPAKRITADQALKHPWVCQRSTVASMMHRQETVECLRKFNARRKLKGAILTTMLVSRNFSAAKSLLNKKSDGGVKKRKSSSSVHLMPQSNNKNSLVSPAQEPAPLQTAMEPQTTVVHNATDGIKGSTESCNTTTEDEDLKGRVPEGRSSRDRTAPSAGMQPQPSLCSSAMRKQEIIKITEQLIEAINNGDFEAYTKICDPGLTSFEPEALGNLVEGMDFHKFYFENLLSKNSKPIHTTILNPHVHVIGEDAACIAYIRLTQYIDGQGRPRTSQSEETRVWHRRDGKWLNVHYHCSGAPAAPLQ
Chain of Serine/threonine-protein kinase N2 (Homo sapiens) (Q16513 whole entry, looked up): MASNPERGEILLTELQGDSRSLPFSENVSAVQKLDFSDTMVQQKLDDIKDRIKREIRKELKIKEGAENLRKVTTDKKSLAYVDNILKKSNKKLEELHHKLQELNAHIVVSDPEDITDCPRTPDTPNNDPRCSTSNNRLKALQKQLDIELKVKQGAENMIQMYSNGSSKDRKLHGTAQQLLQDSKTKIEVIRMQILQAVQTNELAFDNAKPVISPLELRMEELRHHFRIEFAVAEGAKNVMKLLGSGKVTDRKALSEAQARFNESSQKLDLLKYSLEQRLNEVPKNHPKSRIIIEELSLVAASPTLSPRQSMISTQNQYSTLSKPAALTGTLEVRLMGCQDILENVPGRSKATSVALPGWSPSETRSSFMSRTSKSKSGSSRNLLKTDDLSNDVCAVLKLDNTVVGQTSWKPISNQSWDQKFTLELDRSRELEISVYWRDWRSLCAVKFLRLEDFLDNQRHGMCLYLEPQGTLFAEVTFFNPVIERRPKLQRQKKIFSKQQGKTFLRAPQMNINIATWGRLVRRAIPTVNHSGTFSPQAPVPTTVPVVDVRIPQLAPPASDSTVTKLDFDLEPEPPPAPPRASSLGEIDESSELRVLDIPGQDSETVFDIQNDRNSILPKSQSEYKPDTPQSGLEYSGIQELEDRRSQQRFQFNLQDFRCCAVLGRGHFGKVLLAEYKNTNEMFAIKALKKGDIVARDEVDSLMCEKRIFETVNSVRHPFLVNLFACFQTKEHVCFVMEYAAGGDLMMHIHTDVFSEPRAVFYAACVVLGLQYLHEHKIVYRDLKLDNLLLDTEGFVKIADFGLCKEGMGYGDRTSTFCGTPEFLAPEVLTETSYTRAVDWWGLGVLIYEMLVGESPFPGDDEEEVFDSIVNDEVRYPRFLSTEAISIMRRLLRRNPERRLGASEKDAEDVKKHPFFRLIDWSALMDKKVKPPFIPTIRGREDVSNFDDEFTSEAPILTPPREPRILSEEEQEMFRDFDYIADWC
Chain of Serine/threonine-protein kinase 35 (Homo sapiens) (Q8TDR2 whole entry, canonical isoform): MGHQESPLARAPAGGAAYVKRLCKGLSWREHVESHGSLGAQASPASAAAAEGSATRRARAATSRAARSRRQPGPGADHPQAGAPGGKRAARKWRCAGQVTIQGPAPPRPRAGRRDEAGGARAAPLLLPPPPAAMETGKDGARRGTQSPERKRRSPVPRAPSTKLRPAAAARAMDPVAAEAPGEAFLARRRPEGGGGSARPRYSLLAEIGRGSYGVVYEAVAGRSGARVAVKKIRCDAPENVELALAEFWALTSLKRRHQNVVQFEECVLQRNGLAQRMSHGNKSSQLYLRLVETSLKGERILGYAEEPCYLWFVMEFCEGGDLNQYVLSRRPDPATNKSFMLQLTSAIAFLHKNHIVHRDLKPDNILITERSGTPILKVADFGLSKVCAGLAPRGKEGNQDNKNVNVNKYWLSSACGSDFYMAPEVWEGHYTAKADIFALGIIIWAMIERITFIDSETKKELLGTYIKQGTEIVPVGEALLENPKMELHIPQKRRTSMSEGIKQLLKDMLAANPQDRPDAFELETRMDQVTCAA
Chain of Tyrosine-protein kinase CSK (P41240 2-450 limits assumed): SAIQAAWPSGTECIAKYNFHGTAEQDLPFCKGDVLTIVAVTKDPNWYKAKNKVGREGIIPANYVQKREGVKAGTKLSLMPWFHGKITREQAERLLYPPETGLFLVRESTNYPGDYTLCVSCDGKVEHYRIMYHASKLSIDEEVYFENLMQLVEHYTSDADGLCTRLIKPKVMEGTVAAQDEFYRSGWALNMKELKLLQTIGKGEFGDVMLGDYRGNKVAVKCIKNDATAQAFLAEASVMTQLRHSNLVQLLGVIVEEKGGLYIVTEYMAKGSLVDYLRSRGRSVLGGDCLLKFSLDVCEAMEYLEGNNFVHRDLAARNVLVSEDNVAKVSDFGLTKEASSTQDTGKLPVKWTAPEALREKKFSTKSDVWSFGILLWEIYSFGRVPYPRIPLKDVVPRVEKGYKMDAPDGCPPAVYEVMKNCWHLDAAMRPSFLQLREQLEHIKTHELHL
Chain of Serine/threonine-protein kinase PAK 4 (Homo sapiens) (O96013 whole entry, looked up): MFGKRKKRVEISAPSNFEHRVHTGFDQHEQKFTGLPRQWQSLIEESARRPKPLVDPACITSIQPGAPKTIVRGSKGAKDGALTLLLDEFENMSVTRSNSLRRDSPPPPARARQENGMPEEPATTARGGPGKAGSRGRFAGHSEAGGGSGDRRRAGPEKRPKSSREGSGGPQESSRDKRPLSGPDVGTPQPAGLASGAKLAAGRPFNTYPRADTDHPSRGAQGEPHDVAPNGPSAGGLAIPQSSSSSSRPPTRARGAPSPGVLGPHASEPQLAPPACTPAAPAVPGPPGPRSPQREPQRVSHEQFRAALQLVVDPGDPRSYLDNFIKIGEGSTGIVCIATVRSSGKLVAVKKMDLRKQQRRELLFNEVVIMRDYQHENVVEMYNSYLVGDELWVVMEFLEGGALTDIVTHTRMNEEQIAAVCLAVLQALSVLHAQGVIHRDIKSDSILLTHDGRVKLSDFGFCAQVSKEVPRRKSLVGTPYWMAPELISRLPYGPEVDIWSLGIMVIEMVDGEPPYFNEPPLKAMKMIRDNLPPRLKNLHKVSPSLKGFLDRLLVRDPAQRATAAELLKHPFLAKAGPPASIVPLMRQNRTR
Chain of Ribosomal protein S6 kinase alpha-6 (Homo sapiens) (Q9UK32 whole entry, the tested form may be a part): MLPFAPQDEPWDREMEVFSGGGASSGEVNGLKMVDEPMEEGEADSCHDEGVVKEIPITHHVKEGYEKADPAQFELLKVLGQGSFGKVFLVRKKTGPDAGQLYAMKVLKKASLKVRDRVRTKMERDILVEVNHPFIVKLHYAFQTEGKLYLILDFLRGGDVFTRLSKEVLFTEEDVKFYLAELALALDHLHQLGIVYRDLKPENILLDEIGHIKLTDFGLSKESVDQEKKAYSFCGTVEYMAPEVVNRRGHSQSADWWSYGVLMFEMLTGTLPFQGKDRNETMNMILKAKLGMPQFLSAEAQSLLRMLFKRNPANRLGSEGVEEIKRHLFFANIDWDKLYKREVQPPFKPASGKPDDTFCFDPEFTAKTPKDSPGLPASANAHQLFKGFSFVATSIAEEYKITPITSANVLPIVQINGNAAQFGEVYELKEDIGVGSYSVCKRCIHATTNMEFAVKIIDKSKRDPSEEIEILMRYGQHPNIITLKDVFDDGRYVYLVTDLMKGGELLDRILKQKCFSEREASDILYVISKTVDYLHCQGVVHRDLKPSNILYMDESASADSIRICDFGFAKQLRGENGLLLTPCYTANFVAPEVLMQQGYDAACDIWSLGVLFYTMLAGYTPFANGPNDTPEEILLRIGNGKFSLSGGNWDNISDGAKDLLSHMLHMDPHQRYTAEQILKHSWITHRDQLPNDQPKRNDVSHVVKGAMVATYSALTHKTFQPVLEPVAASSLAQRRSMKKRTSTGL

Consider `CNc1cc(Oc2cc(C(=O)Nc3cc(N4CCN(C)CC4)cc(C(F)(F)F)c3)ccc2C)ncn1`, for which the figures for the inhibition in [1] and in test [2] were 6.9% and 24.3%, respectively.
On to `CCN1CCN(Cc2ccc(NC(=O)c3ccc(C)c(/C=C/c4cnc5[nH]ccc5c4OC)c3)cc2C(F)(F)F)CC1`, for which the inhibition was 65% in test [3], 39% in test [4], -9.1% in test [6] and 11% in [7]. For the same molecule, the residual activity in test [5] and in [8] was 100% in each case.
As for `CCN1CCN(Cc2ccc(NC(=O)c3ccc(C)c(Oc4ccnc5[nH]ccc45)c3)cc2C(F)(F)F)CC1`, the inhibition is -2.7% in test [9]; 5.3% in test [10]; 40.8% in test [11]; 7.6% in test [12]; -4.7% in test [14]. In test [13], the inhibition entry is “inactive”.
